Among the test systems are A549 NSCLC; BT-549 breast; HOP-92 NSCLC; NCI-H23 lung; OVCAR-8 ovarian; RPMI-8226 leukemia; SF-268 CNS; SNB-75 CNS; TK-10 renal; UACC-62 melanoma.
Common to all, as to assay: NCI anticancer screen, dose series, 48 h

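Compound exposure: 48 hours, 5 concentrations, 96-well plates. Here, GI50 denotes the concentration required for 50% inhibition of growth. TGI is the concentration that stops growth completely.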

In the case of `COc1cnc2c(c1)C(=O)c1c-2n(CCCN2CCC(O)CC2)c(=O)c2cc(Cl)ccc12`, the GI50 in the experiment on A549 NSCLC was 0.48 µM; in the experiment on BT-549 breast it was 9.9 µM; in the experiment with HOP-92 NSCLC it was 15.5 µM; in the experiment with NCI-H23 lung, 0.248 µM; in the experiment on OVCAR-8 ovarian, 0.665 µM; with RPMI-8226 leukemia, 0.947 µM. For the same compound, the GI50 in the experiment on SF-268 CNS is 0.211 µM; in the experiment on SNB-75 CNS, 10.4 µM; in the experiment with TK-10 renal, 13 µM; with UACC-62 melanoma it was 0.191 µM. Moreover, the TGI in the experiment with A549 NSCLC is 2.34 µM; with BT-549 breast it was 25.9 µM; with HOP-92 NSCLC it was 34.8 µM; in the experiment on NCI-H23 lung, 1.74 µM; with OVCAR-8 ovarian it was 3.53 µM; in the experiment on RPMI-8226 leukemia, 5.19 µM. Further, the TGI in the experiment with SF-268 CNS was 2.34 µM; with SNB-75 CNS, 24.6 µM; in the experiment with TK-10 renal, 28.7 µM; with UACC-62 melanoma it was 13.7 µM.
Regarding `NC1(Cc2ccc(Cl)cc2)CCN(c2ncnc3[nH]ccc23)CC1`, the GI50 with A549 NSCLC was 5.02 µM; in the experiment with BT-549 breast it was 3.45 µM; with HOP-92 NSCLC, 1.09 µM; in the experiment with NCI-H23 lung it was 4.55 µM; in the experiment with OVCAR-8 ovarian it was 11.1 µM; with RPMI-8226 leukemia it was 4.37 µM. Also, the GI50 is 6.66 µM in the experiment on SF-268 CNS, 0.437 µM in the experiment with SNB-75 CNS, 3.17 µM in the experiment on TK-10 renal and 5.85 µM in the experiment with UACC-62 melanoma. Besides, the TGI came to 21.6 µM in the experiment on A549 NSCLC; 16.3 µM in the experiment on BT-549 breast; 7.06 µM in the experiment with HOP-92 NSCLC; 21 µM in the experiment with NCI-H23 lung; 25.4 µM in the experiment with OVCAR-8 ovarian; 26.5 µM with RPMI-8226 leukemia. The TGI with SF-268 CNS was found to be 21.3 µM; with SNB-75 CNS it was 4.37 µM; in the experiment with TK-10 renal it was 14.8 µM; with UACC-62 melanoma it was 20.4 µM.
`NC(CSSCC(N)C(=O)O)C(=O)O` (stereo not given): the GI50 in the experiment on A549 NSCLC, in the experiment with BT-549 breast, with HOP-92 NSCLC, with NCI-H23 lung, in the experiment on OVCAR-8 ovarian and in the experiment on RPMI-8226 leukemia was > 100 µM throughout. Moreover, the GI50 with SF-268 CNS, in the experiment with SNB-75 CNS, in the experiment with TK-10 renal and in the experiment on UACC-62 melanoma was > 100 µM throughout. Also, the TGI in the experiment with A549 NSCLC, in the experiment with BT-549 breast, in the experiment with HOP-92 NSCLC, in the experiment on NCI-H23 lung, in the experiment with OVCAR-8 ovarian and in the experiment on RPMI-8226 leukemia was > 100 µM in each case. Moreover, the TGI with SF-268 CNS, in the experiment with SNB-75 CNS, with TK-10 renal and in the experiment on UACC-62 melanoma was > 100 µM in each case.

The values above are taken from PubChem BioAssay (NCI).
